Experimental data: ChEMBL document CHEMBL1201862, “PubChem BioAssay data set” (2004)
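Each compound was tested at five concentrations against cells in 96-well plates for 48 hours. Abbreviation: GI50, concentration required for 50% inhibition of growth.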 Active and inactive are the calls of the source. No stated cut-off is given here; in the data, active = GI50 up to about 1.1 µM and inactive = higher.

How the values were obtained:
Test in all cases: NCI anticancer screen, dose series, 48 h
786-0 = system: 786-0
A498 = system: A498
A549 = system: A549
ACHN = system: ACHN
BT-549 = system: BT-549
CAKI-1 = system: CAKI-1
CCRF-CEM = system: CCRF-CEM
COLO 205 = system: COLO 205
DU-145 = system: DU-145
EKVX = system: EKVX
HCC 2998 = system: HCC 2998
HCT-116 = system: HCT-116
HCT-15 = system: HCT-15
HL-60 = system: HL-60
HOP-62 = system: HOP-62
HOP-92 = system: HOP-92
HT-29 = system: HT-29
Hs-578T = system: Hs-578T
IGROV-1 = system: IGROV-1
KM12 = system: KM12
LOX IMVI = system: LOX IMVI
M14 = system: M14
MCF7 = system: MCF7
MDA-MB-231 = system: MDA-MB-231
MDA-MB-435 = system: MDA-MB-435
MDA-N = system: MDA-N
Malme-3M = system: Malme-3M
NCI-H226 = system: NCI-H226
NCI-H23 = system: NCI-H23
NCI-H460 = system: NCI-H460
NCI-H522 = system: NCI-H522
NCI/ADR-RES = system: NCI/ADR-RES
OVCAR-3 = system: OVCAR-3
OVCAR-4 = system: OVCAR-4
OVCAR-5 = system: OVCAR-5
OVCAR-8 = system: OVCAR-8
PC-3 = system: PC-3
RXF 393 = system: RXF 393
SF-268 = system: SF-268
SF-295 = system: SF-295
SK-MEL-28 = system: SK-MEL-28
SK-MEL-2 = system: SK-MEL-2
SK-MEL-5 = system: SK-MEL-5
SK-OV-3 = system: SK-OV-3
SN12C = system: SN12C
SNB-19 = system: SNB-19
SW-620 = system: SW-620
TK-10 = system: TK-10
U-251 = system: U-251
UACC-257 = system: UACC-257
UACC-62 = system: UACC-62
UO-31 = system: UO-31
K562 = system: K562
MOLT-4 = system: MOLT-4
RPMI-8226 = system: RPMI-8226
SF-539 = system: SF-539
SNB-75 = system: SNB-75
SR = system: SR
T47D = system: T47D

In the case of `c1ccc(CCNc2ccccn2)nc1`, the GI50 (786-0) is reported as > 100 µM (inactive), the GI50 (A498) is reported as > 100 µM (inactive) and the GI50 (A549) is reported as > 100 µM (inactive). For the same compound, the GI50 (ACHN) was > 100 µM (inactive), the GI50 (BT-549) was > 100 µM (inactive) and the GI50 (CAKI-1) was > 100 µM (inactive). For the same compound, the GI50 (CCRF-CEM) was > 100 µM (inactive), the GI50 (COLO 205) was > 100 µM (inactive) and the GI50 (DU-145) was > 100 µM (inactive). The GI50 (EKVX) was > 100 µM (inactive), the GI50 (HCC 2998) was > 100 µM (inactive) and the GI50 (HCT-116) was > 100 µM (inactive). The GI50 (HCT-15) was > 100 µM, the GI50 (HL-60) was > 100 µM (inactive) and the GI50 (HOP-62) was > 100 µM (inactive). For the same compound, the GI50 (HOP-92) was > 100 µM (inactive), the GI50 (HT-29) was > 100 µM (inactive) and the GI50 (Hs-578T) was > 100 µM (inactive). The GI50 (IGROV-1) was > 100 µM (inactive), the GI50 (KM12) was > 100 µM (inactive) and the GI50 (LOX IMVI) was > 100 µM (inactive). The GI50 (M14) was > 100 µM (inactive), the GI50 (MCF7) was > 100 µM (inactive) and the GI50 (MDA-MB-231) was > 100 µM (inactive). The GI50 (MDA-MB-435) was > 100 µM (inactive), the GI50 (MDA-N) was > 100 µM (inactive) and the GI50 (Malme-3M) was > 100 µM (inactive). For the same compound, the GI50 (NCI-H226) was > 100 µM (inactive), the GI50 (NCI-H23) was > 100 µM (inactive) and the GI50 (NCI-H460) was > 100 µM (inactive). For the same compound, the GI50 (NCI-H522) was > 100 µM (inactive), the GI50 (NCI/ADR-RES) was > 100 µM (inactive) and the GI50 (OVCAR-3) was > 100 µM (inactive). For the same compound, the GI50 (OVCAR-4) was > 100 µM (inactive), the GI50 (OVCAR-5) was > 100 µM (inactive) and the GI50 (OVCAR-8) was > 100 µM (inactive). For the same compound, the GI50 (PC-3) was > 100 µM (inactive), the GI50 (RXF 393) was > 100 µM (inactive) and the GI50 (SF-268) was > 100 µM (inactive). The GI50 (SF-295) was > 100 µM (inactive), the GI50 (SK-MEL-28) was > 100 µM (inactive) and the GI50 (SK-MEL-2) was > 100 µM (inactive). For the same compound, the GI50 (SK-MEL-5) was > 100 µM (inactive), the GI50 (SK-OV-3) was > 100 µM (inactive) and the GI50 (SN12C) was > 100 µM (inactive). The GI50 (SNB-19) was > 100 µM (inactive), the GI50 (SW-620) was > 100 µM (inactive) and the GI50 (TK-10) was > 100 µM (inactive). The GI50 (U-251) was > 100 µM (inactive), the GI50 (UACC-257) was > 100 µM (inactive) and the GI50 (UACC-62) was > 100 µM (inactive). For the same compound, the GI50 (UO-31) was > 100 µM (inactive).
In the case of `COc1ccccc1CNCCCCCNCCCCCCCCCCNCCCCCNCc1ccccc1OC`, the GI50 (786-0) is reported as 23.9 µM (inactive), the GI50 (A549) is reported as 23.4 µM (inactive) and the GI50 (ACHN) is reported as > 100 µM (inactive). For the same compound, the GI50 (BT-549) was 23.5 µM (inactive), the GI50 (CCRF-CEM) was 13 µM (inactive) and the GI50 (COLO 205) was 34.3 µM (inactive). For the same compound, the GI50 (DU-145) was 18 µM (inactive), the GI50 (HCC 2998) was 22.4 µM (inactive) and the GI50 (HCT-116) was 11.8 µM (inactive). For the same compound, the GI50 (HCT-15) was > 100 µM, the GI50 (HL-60) was 21.8 µM (inactive) and the GI50 (HOP-62) was 16 µM (inactive). For the same compound, the GI50 (HOP-92) was 34.5 µM (inactive), the GI50 (HT-29) was 96.6 µM (inactive) and the GI50 (Hs-578T) was 1.05 µM (active). For the same compound, the GI50 (IGROV-1) was 18.8 µM (inactive), the GI50 (K562) was 13.6 µM (inactive) and the GI50 (KM12) was 4.54 µM (inactive). For the same compound, the GI50 (LOX IMVI) was 16.7 µM (inactive), the GI50 (M14) was 73.6 µM (inactive) and the GI50 (MCF7) was 18 µM (inactive). For the same compound, the GI50 (MDA-MB-231) was 16.2 µM (inactive), the GI50 (MDA-MB-435) was 57.4 µM (inactive) and the GI50 (MDA-N) was 18.2 µM (inactive). The GI50 (MOLT-4) was 13.6 µM (inactive), the GI50 (Malme-3M) was 24.8 µM (inactive) and the GI50 (NCI-H226) was 18.1 µM (inactive). The GI50 (NCI-H23) was 42.2 µM (inactive), the GI50 (NCI-H460) was 13.8 µM (inactive) and the GI50 (NCI-H522) was 19.8 µM (inactive). For the same compound, the GI50 (OVCAR-3) was 47 µM (inactive), the GI50 (OVCAR-4) was 79.1 µM (inactive) and the GI50 (OVCAR-8) was 25.6 µM (inactive). The GI50 (RPMI-8226) was 36.7 µM (inactive), the GI50 (RXF 393) was 31 µM (inactive) and the GI50 (SF-268) was 39.4 µM (inactive). The GI50 (SF-295) was 24.7 µM (inactive), the GI50 (SF-539) was 8.65 µM (inactive) and the GI50 (SK-MEL-28) was 79.1 µM (inactive). For the same compound, the GI50 (SK-MEL-2) was 18.4 µM (inactive), the GI50 (SK-MEL-5) was 34.1 µM (inactive) and the GI50 (SN12C) was 27.4 µM (inactive). For the same compound, the GI50 (SNB-19) was 38.1 µM (inactive), the GI50 (SNB-75) was 25.6 µM (inactive) and the GI50 (SR) was 14.9 µM (inactive). The GI50 (SW-620) was 34.4 µM (inactive), the GI50 (T47D) was 54.7 µM (inactive) and the GI50 (TK-10) was 54.6 µM (inactive). The GI50 (U-251) was 18.9 µM (inactive), the GI50 (UACC-62) was 36.6 µM (inactive) and the GI50 (UO-31) was 42 µM (inactive).
In the case of `NCCSc1nc2ccccc2s1`, the GI50 (786-0) is reported as 26.6 µM (inactive), the GI50 (A498) is reported as 32.9 µM (inactive) and the GI50 (A549) is reported as 48.3 µM (inactive). For the same compound, the GI50 (ACHN) was 33.5 µM (inactive), the GI50 (BT-549) was 31.5 µM (inactive) and the GI50 (CAKI-1) was 38.5 µM (inactive). The GI50 (CCRF-CEM) was 26.3 µM (inactive), the GI50 (COLO 205) was > 100 µM (inactive) and the GI50 (DU-145) was 33.9 µM (inactive). For the same compound, the GI50 (EKVX) was 34.4 µM (inactive), the GI50 (HCT-116) was 33.7 µM (inactive) and the GI50 (HCT-15) was 42.9 µM. For the same compound, the GI50 (HL-60) was 73.5 µM (inactive), the GI50 (HOP-62) was 23.8 µM (inactive) and the GI50 (HOP-92) was 25.5 µM (inactive). The GI50 (HT-29) was 34 µM (inactive), the GI50 (Hs-578T) was 32.1 µM (inactive) and the GI50 (IGROV-1) was 41.5 µM (inactive). The GI50 (K562) was 10.6 µM (inactive), the GI50 (KM12) was 45.1 µM (inactive) and the GI50 (LOX IMVI) was 30.7 µM (inactive). The GI50 (M14) was 33.7 µM (inactive), the GI50 (MCF7) was 28.8 µM (inactive) and the GI50 (MDA-MB-231) was 40 µM (inactive). The GI50 (MDA-MB-435) was 23 µM (inactive), the GI50 (MDA-N) was 38.3 µM (inactive) and the GI50 (MOLT-4) was 34.9 µM (inactive). The GI50 (Malme-3M) was 50.8 µM (inactive), the GI50 (NCI-H226) was 36.6 µM (inactive) and the GI50 (NCI-H23) was 41.7 µM (inactive). For the same compound, the GI50 (NCI-H460) was 36.1 µM (inactive), the GI50 (NCI-H522) was 28.1 µM (inactive) and the GI50 (NCI/ADR-RES) was 42.6 µM (inactive). For the same compound, the GI50 (OVCAR-3) was 38.6 µM (inactive), the GI50 (OVCAR-4) was 29 µM (inactive) and the GI50 (OVCAR-5) was 38.3 µM (inactive). For the same compound, the GI50 (OVCAR-8) was 43.2 µM (inactive), the GI50 (PC-3) was 44 µM (inactive) and the GI50 (RPMI-8226) was 31.9 µM (inactive). For the same compound, the GI50 (RXF 393) was 29.5 µM (inactive), the GI50 (SF-268) was 32.5 µM (inactive) and the GI50 (SF-295) was 23.4 µM (inactive). The GI50 (SF-539) was 17.3 µM (inactive), the GI50 (SK-MEL-28) was > 100 µM (inactive) and the GI50 (SK-MEL-2) was 26.1 µM (inactive). The GI50 (SK-MEL-5) was 52.7 µM (inactive), the GI50 (SK-OV-3) was 32.1 µM (inactive) and the GI50 (SN12C) was 38.7 µM (inactive). The GI50 (SNB-19) was 64.7 µM (inactive), the GI50 (SNB-75) was 22.8 µM (inactive) and the GI50 (SR) was 25.9 µM (inactive). The GI50 (SW-620) was 32.1 µM (inactive), the GI50 (TK-10) was 24.9 µM (inactive) and the GI50 (U-251) was 21.7 µM (inactive). The GI50 (UACC-257) was 47 µM (inactive), the GI50 (UACC-62) was 31.3 µM (inactive) and the GI50 (UO-31) was 43.8 µM (inactive).
